{"source": "patent US20140357512A1", "about": "“HISTONE DEACETYLASE (HDAC) BIOMARKERS IN MULTIPLE MYELOMA” (priority 2013, published 2014)", "test_system": "human myeloma cell line MM.1S", "experiment": "SILAC acetylated-lysine peptide profiling, HDAC inhibitor vs DMSO (light/heavy ratio)", "type": "cell-based", "text": "An embodiment of the invention comprises utilizing the SILAC method in order to quantitate changes in protein expression between two or more populations of cells. The SILAC method is a technique based on mass spectrometry that detects differences in protein abundance among samples using non-radioactive isotopic labeling. The SILAC method is known in the art, and described in detail in Ong et al., “Stable Isotope Labeling by Amino Acids in Cell Culture, SILAC, as a Simple and Accurate Approach to Expression Proteomics”, Molecular & Cellular Proteomics, vol. 1, pp. 376-386 (2002), which is incorporated herein by reference in its entirety.\nBriefly, the SILAC method involves growing two populations of cells in cell culture. The first population of cells is grown in growth media containing normal amino acids (“normal media”). The second population of cells is grown in media lacking a standard essential amino acid (such as lysine), but is then supplemented with a non-radioactive, isotopically labeled form of that essential amino acid (such as lysine labeled with ^13C atoms, rather than normal ^12C atoms), which is called “heavy media”. When the two populations of cells are each growing in the medium, they incorporate the amino acids into all of their proteins. The growth of cells maintained in the heavy media is no different from that in normal media. All peptides containing the heavy amino acids are heavier than their normal counterparts. The cells from each of the two populations of cells are lysed. The lysates from each of the two cell populations are then combined. The combined cell lysates are then analyzed by mass spectrometry. Pairs of chemically identical peptides of different stable isotope composition can be differentiated in a mass spectrometer due to their difference in mass. The ratio of peak intensities in the mass spectrum for such peptide pairs reflects the abundance ratio for the two proteins.\nThis example describes SILAC studies that were performed to compare the effects of three different HDAC inhibitors (Compound A, Compound B, and tubastatin A) to a control on a human multiple myeloma cell line. The HDAC inhibitors were also compared amongst themselves to determine differences in their effects.\nA human myeloma cell line MM.1S was grown using either ^12C (light) or ^13C (heavy) lysine containing culture medium. The “heavy” cells were treated with DMSO as the control, and the “light” cells were treated with a single HDAC inhibitor at 37° C. for 6 hours. The heavy and light cells were lysed, and the lysates were mixed in 1:1 ratio and digested with the protease trypsin. The acetylated lysine containing peptides (due to the action of the HDAC inhibitor) in the digested peptide pool were captured by a non-specific anti-acetylated lysine antibody cocktail (the antibodies identify both light and heavy acetylated peptides), and subjected to mass spectrometry analysis in order to identify thousands of individual peptides.\nThousands of peptides were identified in pairs (^12C and ^13C) due to their known mass differences. The amino acid sequence and quantitative ratio (Light/Heavy) of a given peptide in two differentially treated cell lysates were then determined and annotated with their possible protein (gene) sources.\nAs stated above, three HDAC inhibitors (Compound A, Compound B, and Tubastatin A) were used. Thus, the SILAC method was performed three times, with a different HDAC inhibitor compared to a control each time. Accordingly, there are three pairs of quantitative data in the table below, i.e., Compound A:DMSO, Compound B:DMSO, and Tubastatin A:DMSO. A cut-off of 1.30 fold of change (increase or decrease) was then used to determine “changed” or “+” in the table, and any peptides with a fold of change less than 1.3 fold were determined to be “unchanged” or “0” in the table. Those peptides that were not identified were marked as “NA” in the table. […]", "data": [{"smiles": "O=C(NO)c1cnc(NC2(c3cccc(F)c3)CCCCC2)nc1", "note": "[Compound B, 2-((1-(3-fluorophenyl)cyclohexyl)amino)-N-hydroxypyrimidine-5-carboxamide]", "values": [{"measurement": "light to heavy ratio (L/H ratio) of acetylated peptide, log 2 scale", "setting": "FLNAENAQK(ac)FK (SEQ ID NO: 200), Ran-specific GTPase-activating protein [150], RANBP1", "value": 0.00}, {"measurement": "light to heavy ratio (L/H ratio) of acetylated peptide, log 2 scale", "setting": "FNQK(ac)GEVYK (SEQ ID NO: 149), Lipoamide acyltransferase component of branched-chain alpha-keto acid dehydrogenase complex mitochondrial [435], DBT", "value": 0.00}, {"measurement": "light to heavy ratio (L/H ratio) of acetylated peptide, log 2 scale", "setting": "FPHSAHQK(ac)YVR (SEQ ID NO: 253), Ribosomal protein L14 variant [71], RPL14", "value": 0.00}, {"measurement": "L/H ratio of acetylated peptide", "setting": "FQAK(ac)[…] (SEQ ID NO: 415), Microtubule-associated protein RP/EB family member 1 [66], MAPRE1", "value": "−1.00", "unit": "log 2"}, {"measurement": "light to heavy ratio (L/H ratio) of acetylated peptide, log 2 scale", "setting": "FWNK(ac)FLENK (SEQ ID NO: 187), NADH dehydrogenase [ubiquinone] 1 beta subcomplex subunit 6 [49], NDUFB6", "value": 0.00}, {"measurement": "light to heavy ratio (L/H ratio) of acetylated peptide AVDLIQK(ac)HK (SEQ ID NO: 546)", "setting": "Flap endonuclease 1 [252], gene FEN1, inhibitor:DMSO", "value": 0.00, "unit": "log 2"}, {"measurement": "light to heavy ratio (L/H ratio), log 2 scale, acetylated peptide GGVVGIK(ac)VDK (SEQ ID NO: 774)", "setting": "Fructose-bisphosphate aldolase A [108], gene ALDOA, drug:DMSO", "value": 0.00}, {"measurement": "L/H ratio of acetylated peptide ASGLAAGK(ac)GVIVAK (SEQ ID NO: 37)", "setting": "GART [156], log 2 scale, drug vs DMSO", "value": 0.00}, {"measurement": "light to heavy ratio (L/H ratio) of acetylated peptide, log 2 scale", "setting": "GDASK(ac)EDIDTAMK (SEQ ID NO: 161), Isoform 1 of Hydroxyacyl-coenzyme A dehydrogenase mitochondrial [241], HADH", "value": 0.00}, {"measurement": "light to heavy ratio (L/H ratio) of acetylated peptide, log 2 scale", "setting": "GDGTGGK(ac)SIYGER (SEQ ID NO: 196), Peptidyl-prolyl cis-trans isomerase B [116], PPIB", "value": 0.00}, {"measurement": "light to heavy ratio (L/H ratio) of acetylated peptide, log 2 scale", "setting": "GFGGK(ac)YGVER (SEQ ID NO: 162), Hematopoietic lineage cell-specific protein [123], HCLS1", "value": 0.00}, {"measurement": "light to heavy ratio (L/H ratio) of acetylated peptide, log 2 scale", "setting": "GIVK(ac)DIIHDPGR (SEQ ID NO: 207), 60S ribosomal protein L8 [46], RPL8", "value": 0.00}, {"measurement": "L/H ratio of acetylated peptide", "setting": "GK(ac)LEEQRPER (SEQ ID NO: 459), Tumor protein translationally-controlled 1 [102], TPT1", "value": "−0.42", "unit": "log 2"}, {"measurement": "L/H ratio of acetylated peptide", "setting": "GK(ac)YMLVR (SEQ ID NO: 377), Carbohydrate sulfotransferase 1 [296], CHST1", "value": 1.00, "unit": "log 2"}, {"measurement": "L/H ratio of acetylated peptide", "setting": "GLAPQNK(ac)PELQK (SEQ ID NO: 393), Isoform 2 of Protein FAM107B [225], FAM107B", "value": 0.69, "unit": "log 2"}, {"measurement": "light to heavy ratio (L/H ratio) of acetylated peptide, log 2 scale", "setting": "GLFIIDDK(ac)GILR (SEQ ID NO: 197), Peroxiredoxin-1 [136], PRDX1", "value": 0.00}, {"measurement": "L/H ratio of acetylated peptide LVK(ac)VWNLANCK (SEQ ID NO: 39)", "setting": "GNB2L1 [175], log 2 scale, drug vs DMSO", "value": 0.00}, {"measurement": "L/H ratio of acetylated peptide IIVDELK(ac)QEVISTSSK (SEQ ID NO: 38)", "setting": "GNB2L1 [271], log 2 scale, drug vs DMSO", "value": 0.00}, {"measurement": "L/H ratio of acetylated peptide", "setting": "GNTPK(ac)[…] (SEQ ID NO: 449), Nucleolar protein 56 [347], SNORD110, SNORD86, NOP56", "value": "−0.41", "unit": "log 2"}, {"measurement": "L/H ratio of acetylated peptide (ac)AHYNFK(ac)K (SEQ ID NO: 40)", "setting": "GTPBP4 [7], log 2 scale, drug vs DMSO", "value": 0.00}, {"measurement": "L/H ratio of acetylated peptide", "setting": "GYGFGLIK(ac)LDLK (SEQ ID NO: 465), Voltage-dependent anion-selective channel protein 1 [28], VDAC1", "value": "−0.57", "unit": "log 2"}, {"measurement": "light to heavy ratio (L/H ratio) of acetylated peptide, log 2 scale", "setting": "GYLTK(ac)EDLR (SEQ ID NO: 216), Protein S100-A10 [28], S100A10", "value": 0.00}, {"measurement": "light to heavy ratio (L/H ratio) of acetylated peptide (ac)[…](ac)PGECLR (SEQ ID NO: 575)", "setting": "Galectin-1 [13], gene LGALS1, inhibitor:DMSO", "value": 0.00, "unit": "log 2"}, {"measurement": "light to heavy ratio (L/H ratio) of acetylated peptide ISGASEK(ac)[…] (SEQ ID NO: 543)", "setting": "Glutamate dehydrogenase 1 mitochondrial [503], gene GLUD1, inhibitor:DMSO", "value": 0.00, "unit": "log 2"}, {"measurement": "light to heavy ratio (L/H ratio) of acetylated peptide […](ac)YDNSLK (SEQ ID NO: 620)", "setting": "Glyceraldehyde-3-phosphate dehydrogenase [139], gene GAPDH, inhibitor:DMSO", "value": 0.00, "unit": "log 2"}, {"measurement": "light to heavy ratio (L/H ratio) of acetylated peptide VVK(ac)QASEGPLK (SEQ ID NO: 597)", "setting": "Glyceraldehyde-3-phosphate dehydrogenase [263], gene GAPDH, inhibitor:DMSO", "value": 0.00, "unit": "log 2"}, {"measurement": "light to heavy ratio (L/H ratio) of acetylated peptide AHLQK(ac)LMSDK (SEQ ID NO: 549)", "setting": "Glycyl-tRNA synthetase [224], gene GARS, inhibitor:DMSO", "value": 0.00, "unit": "log 2"}, {"measurement": "light to heavy ratio (L/H ratio), log 2 scale, acetylated peptide LLLLGAGESGK(ac)STIVK (SEQ ID NO: 769)", "setting": "Guanine nucleotide-binding protein G(olf) subunit alpha [55], gene GNAL, drug:DMSO", "value": 0.00}, {"measurement": "L/H ratio of acetylated peptide AGGK(ac)AGK(ac)DSGK (SEQ ID NO: 15)", "setting": "H2AFV [5:8], log 2 scale, drug vs DMSO", "value": 0.95}, {"measurement": "light to heavy ratio (L/H ratio) of acetylated peptide FSPDDK(ac)YSR (SEQ ID NO: 504)", "setting": "H/ACA ribonucleoprotein complex subunit 3 [40], gene NOP10, inhibitor:DMSO", "value": 0.00, "unit": "log 2"}, {"measurement": "L/H ratio of acetylated peptide GQQQVFK(ac)GLNDK (SEQ ID NO: 41)", "setting": "HADHA [406], log 2 scale, drug vs DMSO", "value": 0.00}, {"measurement": "L/H ratio of acetylated peptide EPVAVLK(ac)ANR (SEQ ID NO: 9)", "setting": "HEXB [161], log 2 scale, drug vs DMSO", "value": "−0.40"}]}]}
